Earlier results in US20050064023A1, “Compound” (priority 2001, published 2005).

Conditions: in combination with DOPE

Compound | enhancement compared to the non-disulfide analogs | cellular toxicity compared to DC-Chol liposomes | transfection efficiency compared to DC-Chol liposomes
1,2-dioleyl-sn-glycero-3-succinyl-2-hydroxyethyl-disulfide omithine [DOGSDSO] | up to 50 times | – | –
CC(C)CCC[C@@H](C)[C@H]1CC[C@H]2[C@@H]3CC=C4C[C@@H](OC(=O)CSSCC(=O)NCCN(CCN)CCN)CC[C@]4(C)[C@H]3CC[C@]12C [CHDTAEA, cholesteryl-hemi-dithio-diglycolyl-tris(aminoethyl)-amine] | – | decrease of cellular toxicity | increase of transfection efficiency
